Measurements as given in patent US12201632B2, “Levoketoconazole for treatment of congenital adrenal hyperplasia and primary aldosteronism” (Strongbridge Dublin Limited, priority 2018, dated 2025).

Columns and labels:
[1] = system: human primary adrenocortical cultures; assay: Cortisol production in human primary adrenocortical cultures, comparison across cultures; format: cell-based; conditions: primary human adrenocortical cultures
Method: (§1) To obtain primary cultures, adrenal specimens (adrenocortical adenomas, adrenal hyperplasias and adrenocortical carcinomas) were collected after adrenalectomy at the department of Surgery, Erasmus University Medical Center, Rotterdam, the Netherlands, between April 2016 and May 2018. The study was conducted under guidelines that have been approved by the Medical Ethics Committee of the Erasmus Medical Center and informed consent was obtained from all patients. Immediately after surgery, specimens were minced into small pieces of 2-3 mm^3, washed in culture medium and centrifuged for 5 minutes at 600 g. The tissue was stored overnight in culture medium at 4° C., where after the tissue was centrifuged again and the supernatant was removed. Fragments were dissociated using 10-25 ml collagenase type 1 (2 mg/ml: Sigma-Aldrich), followed by incubation at 37° C. for up to two hours. Ficoll (GE healthcare) density gradient separation was used once or twice as required in order to separate contaminating red blood cells from the tumor cells. Cell viability and cell amount were counted by trypan blue exclusion. Dissociated cells were plated at a density of 10^5 cells per well. ACTH-secreting corticotroph pituitary adenoma tissue from patients with Cushing's disease (n=2) was available after transsphenoidal surgery. Single-cell suspensions of the pituitary adenoma tissues were prepared as previously described in detail.
(§2) Primary culture conditions for primary cultures were similar as described in the section ‘cell culture and compounds’, but with small adjustments: ACTH was used at a concentration of 85 pM (250 pg/mL), treatment was started 3-4 days after plating of the cells and cells were incubated for 3 days, and; for pituitary primary cultures, levoketoconazole and racemic ketoconazole were only tested at a concentration of 1 μM. Owing to a limited number of cells obtained from the specimens, not all experiments were carried out in every primary culture.
(§3) Cortisol concentrations were measured in the supernatant using a chemiluminescence immunoassay system (Immulite 2000XPi; Siemens DPC Inc., Los Angeles, Calif., USA). In addition, we carried out multi-steroid analysis by liquid chromatography/mass spectrometry (LC/MS-MS) to accurately quantify androstenedione, corticosterone, cortisol, 11-deoxycortisol, DHEA, DHEAS, progesterone, 17-hydroxyprogesterone, and testosterone. Concentrations that were tested on the LC/MS-MS were closest to 50% inhibition or maximal inhibition of cortisol as determined by the immunoassay. Steroids were quantified with respect to a calibration series, with internal standards. Steroids were quantified on a Xevo TQS LC-MS/MS (Waters Chromatography).
(§4) Statistical analysis was performed using Graphpad Prism 6.0 (Graphpad Software, San Diego, CA). Non-linear regression curve fitting program was used to calculate the half maximal inhibitory concentrations (IC50) on cortisol production. Effects of both compounds on the steroid profile were measured as absolute change compared to control and compared using the Student's t-test. When assessing differences between effects of both compounds, the percentage change was evaluated and compared in order to correct for differences in the vehicle treated control cells. Values of P<0.05 were considered statistically significant and data are presented as mean SEM.

[2] = system: EAS associated adrenal hyperplasia no. 1 primary culture; assay: Steroid profile by LC/MS-MS in EAS associated adrenal hyperplasia no. 1; format: cell-based, human; conditions: for 11-DOC absolute change vs ACTH stimulation with vehicle / 11-DOC percentage change vs ACTH stimulation with vehicle / 17-OHP absolute change vs ACTH stimulation with vehicle / 17-OHP percentage change vs ACTH stimulation with vehicle / Androstenedione absolute change vs ACTH stimulation with vehicle / Androstenedione percentage change vs ACTH stimulation with vehicle / Corticosterone absolute change vs ACTH stimulation with vehicle / Corticosterone percentage change vs ACTH stimulation with vehicle / Cortisol absolute change vs ACTH stimulation with vehicle / Cortisol percentage change vs ACTH stimulation with vehicle / DHEA absolute change vs ACTH stimulation with vehicle / DHEAS absolute change vs ACTH stimulation with vehicle / Prog absolute change vs ACTH stimulation with vehicle / Prog percentage change vs ACTH stimulation with vehicle / Testosterone absolute change vs ACTH stimulation with vehicle / Testosterone percentage change vs ACTH stimulation with vehicle: EAS associated adrenal hyperplasia no. 1, ACTH; for 11-DOC absolute change vs ACTH stimulation with vehicle / 11-DOC percentage change vs ACTH stimulation with vehicle / 17-OHP absolute change vs ACTH stimulation with vehicle / 17-OHP percentage change vs ACTH stimulation with vehicle / Androstenedione absolute change vs ACTH stimulation with vehicle / Androstenedione percentage change vs ACTH stimulation with vehicle / Corticosterone absolute change vs ACTH stimulation with vehicle / Corticosterone percentage change vs ACTH stimulation with vehicle / Cortisol absolute change vs ACTH stimulation with vehicle / Cortisol percentage change vs ACTH stimulation with vehicle / DHEA absolute change vs ACTH stimulation with vehicle / DHEAS absolute change vs ACTH stimulation with vehicle / Prog absolute change vs ACTH stimulation with vehicle / Prog percentage change vs ACTH stimulation with vehicle / Testosterone absolute change vs ACTH stimulation with vehicle / Testosterone percentage change vs ACTH stimulation with vehicle / 11-DOC absolute change vs control / 11-DOC percentage change vs control / 17-OHP absolute change vs control / 17-OHP percentage change vs control / Androstenedione absolute change vs control / Androstenedione percentage change vs control / Corticosterone absolute change vs control / Corticosterone percentage change vs control / Cortisol absolute change vs control / Cortisol percentage change vs control / DHEA absolute change vs control / DHEAS absolute change vs control / Prog absolute change vs control / Prog percentage change vs control / Testosterone absolute change vs control / Testosterone percentage change vs control: 3 days; for 11-DOC absolute change vs control / 11-DOC percentage change vs control / 17-OHP absolute change vs control / 17-OHP percentage change vs control / Androstenedione absolute change vs control / Androstenedione percentage change vs control / Corticosterone absolute change vs control / Corticosterone percentage change vs control / Cortisol absolute change vs control / Cortisol percentage change vs control / DHEA absolute change vs control / DHEAS absolute change vs control / Prog absolute change vs control / Prog percentage change vs control / Testosterone absolute change vs control / Testosterone percentage change vs control: EAS associated adrenal hyperplasia no. 1, Basal
Method: as §1, §2, §3, §4

[3] = cited from earlier work

CC(=O)N1CCN(c2ccc(OC[C@@H]3CO[C@@](Cn4ccnc4)(c4ccc(Cl)cc4Cl)O3)cc2)CC1 (relative stereo) [levoketoconazole, 2S,4R cis-1-acetyl-4-[4-[[2-(2,4-dichlorophenyl)-2-(1H-imidazol-1-ylmethyl)-1,3-dioxolan-4-yl]methoxyl]phenyl]piperazine]
difference in IC50 value between patients and tissue specimens [1]: 24 fold | 11-DOC absolute change vs ACTH stimulation with vehicle ([2]; 0.05 μM): did not change | 11-DOC percentage change vs ACTH stimulation with vehicle ([2]; 0.05 μM): (+1.6%) | 17-OHP absolute change vs ACTH stimulation with vehicle ([2]; 0.05 μM): +8.300 nmol/l | 17-OHP percentage change vs ACTH stimulation with vehicle ([2]; 0.05 μM): +41% | Androstenedione absolute change vs ACTH stimulation with vehicle ([2]; 0.05 μM): -9.600 nmol/L | Androstenedione percentage change vs ACTH stimulation with vehicle ([2]; 0.05 μM): −50% | Corticosterone absolute change vs ACTH stimulation with vehicle ([2]; 0.05 μM): +97.95 nmol/l | Corticosterone percentage change vs ACTH stimulation with vehicle ([2]; 0.05 μM): +29% | Cortisol absolute change vs ACTH stimulation with vehicle ([2]; 0.05 μM): -234.8 nmol/L | Cortisol percentage change vs ACTH stimulation with vehicle ([2]; 0.05 μM): −37% | DHEA absolute change vs ACTH stimulation with vehicle ([2]; 0.05 μM): <LLQ | DHEAS absolute change vs ACTH stimulation with vehicle ([2]; 0.05 μM): <LLQ | Prog absolute change vs ACTH stimulation with vehicle ([2]; 0.05 μM): +6.025 nmol/l | Prog percentage change vs ACTH stimulation with vehicle ([2]; 0.05 μM): +167% | Testosterone absolute change vs ACTH stimulation with vehicle ([2]; 0.05 μM): -0.3250 nmol/L | Testosterone percentage change vs ACTH stimulation with vehicle ([2]; 0.05 μM): −45% | 11-DOC absolute change vs ACTH stimulation with vehicle ([2]; 0.05 μM, listed as LK): -6.000 nmol/L | 17-OHP absolute change vs ACTH stimulation with vehicle ([2]; 0.05 μM, listed as LK): +8.300 nmol/l | 17-OHP percentage change vs ACTH stimulation with vehicle ([2]; 0.05 μM, listed as LK): (+41%) | Androstenedione absolute change vs ACTH stimulation with vehicle ([2]; 0.05 μM, listed as LK): -9.600 nmol/L | Androstenedione percentage change vs ACTH stimulation with vehicle ([2]; 0.05 μM, listed as LK): (−50%) | Corticosterone absolute change vs ACTH stimulation with vehicle ([2]; 0.05 μM, listed as LK): 97.95 nmol/L | Corticosterone percentage change vs ACTH stimulation with vehicle ([2]; 0.05 μM, listed as LK): (+29%) | Cortisol absolute change vs ACTH stimulation with vehicle ([2]; 0.05 μM, listed as LK): -234.8 nmol/L | Cortisol percentage change vs ACTH stimulation with vehicle ([2]; 0.05 μM, listed as LK): (−37%) | Prog percentage change vs ACTH stimulation with vehicle ([2]; 0.05 μM, listed as LK): (+167%) | Testosterone absolute change vs ACTH stimulation with vehicle ([2]; 0.05 μM, listed as LK): -0.3250 nmol/L | Testosterone percentage change vs ACTH stimulation with vehicle ([2]; 0.05 μM, listed as LK): (−45%) | 11-DOC absolute change vs ACTH stimulation with vehicle ([2]; 5 μM): -435.4 nmol/L | 11-DOC percentage change vs ACTH stimulation with vehicle ([2]; 5 μM): (−99%) | 17-OHP absolute change vs ACTH stimulation with vehicle ([2]; 5 μM): -31.55 nmol/L | 17-OHP percentage change vs ACTH stimulation with vehicle ([2]; 5 μM): (−90%) | Androstenedione absolute change vs ACTH stimulation with vehicle ([2]; 5 μM): -15.19 nmol/L | Androstenedione percentage change vs ACTH stimulation with vehicle ([2]; 5 μM): (−98%) | Corticosterone absolute change vs ACTH stimulation with vehicle ([2]; 5 μM): -373.7 nmol/L | Corticosterone percentage change vs ACTH stimulation with vehicle ([2]; 5 μM): (−100%) | Cortisol absolute change vs ACTH stimulation with vehicle ([2]; 5 μM): -640.2 nmol/L | Cortisol percentage change vs ACTH stimulation with vehicle ([2]; 5 μM): (−100%) | DHEA absolute change vs ACTH stimulation with vehicle ([2]; 5 μM): <LLQ | DHEAS absolute change vs ACTH stimulation with vehicle ([2]; 5 μM): <LLQ | Prog absolute change vs ACTH stimulation with vehicle ([2]; 5 μM): +37.66 nmol/l | Prog percentage change vs ACTH stimulation with vehicle ([2]; 5 μM): (+1201%) | Testosterone absolute change vs ACTH stimulation with vehicle ([2]; 5 μM): -0.5513 nmol/L | Testosterone percentage change vs ACTH stimulation with vehicle ([2]; 5 μM): (−85%) | 11-DOC absolute change vs control ([2]; 0.05 μM): -96.33 nmol/L | 11-DOC percentage change vs control ([2]; 0.05 μM): (−37%) | 17-OHP absolute change vs control ([2]; 0.05 μM): -0.4667 nmol/L | 17-OHP percentage change vs control ([2]; 0.05 μM): (−4.6%) | Androstenedione absolute change vs control ([2]; 0.05 μM): -6.508 nmol/L | Androstenedione percentage change vs control ([2]; 0.05 μM): (−64%) | Corticosterone absolute change vs control ([2]; 0.05 μM): -67.07 nmol/L | Corticosterone percentage change vs control ([2]; 0.05 μM): (−33%) | Cortisol absolute change vs control ([2]; 0.05 μM): -178.4 nmol/L | Cortisol percentage change vs control ([2]; 0.05 μM): (−64%) | DHEA absolute change vs control ([2]; 0.05 μM): <LLQ | DHEAS absolute change vs control ([2]; 0.05 μM): <LLQ | Prog absolute change vs control ([2]; 0.05 μM): +5.108 nmol/l | Prog percentage change vs control ([2]; 0.05 μM): (+123%) | Testosterone absolute change vs control ([2]; 0.05 μM): -0.2583 nmol/L | Testosterone percentage change vs control ([2]; 0.05 μM): (−48%) | 11-DOC absolute change vs control ([2]; 5 μM): -280.5 nmol/L | 11-DOC percentage change vs control ([2]; 5 μM): (−99%) | 17-OHP absolute change vs control ([2]; 5 μM): -14.33 nmol/L | 17-OHP percentage change vs control ([2]; 5 μM): (−93%) | Androstenedione absolute change vs control ([2]; 5 μM): -7.978 nmol/L | Androstenedione percentage change vs control ([2]; 5 μM): (−95%) | Corticosterone absolute change vs control ([2]; 5 μM): -193.8 nmol/L | Corticosterone percentage change vs control ([2]; 5 μM): (−99%) | Cortisol absolute change vs control ([2]; 5 μM): -230.3 nmol/L | Cortisol percentage change vs control ([2]; 5 μM): (−99%) | DHEA absolute change vs control ([2]; 5 μM): <LLQ | DHEAS absolute change vs control ([2]; 5 μM): <LLQ | Prog absolute change vs control ([2]; 5 μM): +13.36 nmol/l | Prog percentage change vs control ([2]; 5 μM): (+363%) | Testosterone absolute change vs control ([2]; 5 μM): -0.3838 nmol/L | Testosterone percentage change vs control ([2]; 5 μM): (−90%) | total change of steroids ([2]; EAS associated adrenal hyperplasia no. 1, basal condition): -343.9 nmol/L | total sum of change of the steroids: decrease ([2]; EAS associated adrenal hyperplasia no. 1, under ACTH stimulation): 138.5 nmol/L | propensity to increase 11-deoxycorticosterone secretion compared to racemic ketoconazole ([2]; human adrenal cells in the presence of ACTH drive): less propensity to increase 11-deoxycorticosterone secretion | accumulation in a subject's body over repeated dosing [3]: significantly less accumulation
